Target: human TGFβR1 (Homo sapiens (Human), UniProt P36897)
Assay: TGFβR1 kinase activity assay (ADP-Glo method)
Assay type: biochemical
Conditions: ATP 5 uM, TGFβR1tide substrate, 60 minutes at room temperature
Procedure: The principle of the activity assay was that TGFβR1 phosphorylates the substrate TGFβR1tide, consuming ATP in the process. […] The specific experimental steps were as follows. Compounds were diluted 4-fold in DMSO in a dilution plate, with the final starting concentration of the compounds being 10 μM, across 10 concentration gradient points. The compounds were then further diluted 50-fold into the kinase reaction buffer and incubated on a shaker for 20 minutes. Kinase was formulated with an enzyme reaction buffer. 2 μl kinase was added to each well of the reaction plate. 1 μl of the compound diluted in buffer was added to each well, and then the plate was sealed with a sealing membrane and centrifuged at 1000 g for 30 seconds, leaving it at room temperature for 10 minutes. Solutions of TGFβR1tide and ATP were prepared with the kinase reaction buffer, and 2 μL of the TGFβR1tide/ATP solution was added to the reaction plate. The plate was sealed with a sealing film and centrifuged at 1000 g for 30 seconds. It was allowed to react at room temperature for 60 minutes. Subsequently, 4 μL of ADP-Glo was transferred to a 384-well reaction plate and centrifuged at 1000 rpm/min for 1 minute, followed by incubation at 25° C. for 40 minutes. Then, 8 μL of Detection solution was transferred to the 384-well reaction plate and centrifuged at 1000 rpm/min for 1 minute, after which it was incubated at 25° C. for 40 minutes. The RLU (Relative Luminescence Unit) signal was read using a BMG microplate reader, which was used to characterize the degree of kinase activity.
3.1 The inhibition rate was calculated as follows: inhibition rate of compound (% inh)=100%−(compound−positive control)/(negative control−positive control)*100%.
The IC50 (half inhibition concentration) of a compound was obtained using the following non-linear fitting equation, wherein data analysis was performed using Graphpad 7.0 software.
X: log value of compound concentration; and Y: inhibition rate (% inhibition)

Chain of human TGFβR1 (P36897 34-503): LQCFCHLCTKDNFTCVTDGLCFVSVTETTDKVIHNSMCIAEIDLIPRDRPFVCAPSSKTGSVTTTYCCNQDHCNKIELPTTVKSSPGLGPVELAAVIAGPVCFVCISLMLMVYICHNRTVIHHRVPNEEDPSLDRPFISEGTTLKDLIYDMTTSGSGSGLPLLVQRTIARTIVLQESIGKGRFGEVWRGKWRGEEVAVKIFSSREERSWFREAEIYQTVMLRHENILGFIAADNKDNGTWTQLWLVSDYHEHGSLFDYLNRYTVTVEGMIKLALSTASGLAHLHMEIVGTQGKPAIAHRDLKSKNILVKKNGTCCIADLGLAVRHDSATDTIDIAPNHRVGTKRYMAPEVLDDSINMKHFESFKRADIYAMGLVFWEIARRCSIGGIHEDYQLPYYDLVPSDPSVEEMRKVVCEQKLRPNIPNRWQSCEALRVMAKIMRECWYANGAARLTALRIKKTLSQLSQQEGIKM

Compound	IC50 [nM]
Cc1cccc(-c2nc3n(c2-c2ccnc(-c4nc5c([nH]4)CNC5)c2)CCC3)n1 [Compound 2, 2-(4-(2-(6-methylpyridin-2-yl)-6,7-dihydro-5H-pyrrolo[1,2-a]imidazol-3-yl)pyridin-2-yl)-1,4,5,6-tetrahydropyrrolo[3,4-d]imidazole]	23
Cc1cccc(-c2n[nH]cc2-c2ccnc(-c3nc4c([nH]3)CNCC4)c2)n1 [Compound 76]	13
Cc1cccc(-c2nn3c(c2-c2ccnc(-c4nc5c([nH]4)CN(C(=O)C4CCN(C)CC4)C5)c2)CCC3)n1 [Compound 73, (1-Methylpiperidin-4-yl)(2-(4-(2-(6-methylpyridin-2-yl)-5,6-dihydro-4H-pyrrolo[1,2-b]pyrazol-3-yl)pyridin-2-yl)-4,6-dihydropyrrolo[3,4-d]imidazol-5(1H)-yl)ketone]	2.8
CNC(=O)N1Cc2nc(-c3cc(-c4c(-c5cccc(C)n5)nc5n4CCC5)ccn3)[nH]c2C1 [Compound 28]	19
Cc1cccc(-c2nn(Cc3ccncc3)cc2-c2ccnc(-c3nc4c([nH]3)CN(S(C)(=O)=O)C4)c2)n1 [Compound 55, 2-[4-(3-(6-Methylpyridin-2-yl)-1-(pyridin-4-ylmethyl)-1H-pyrazol-4-yl)pyridin-2-yl]-5-(methylsulfonyl)-1,4,5,6-tetrahydropyrrolo[3,4-d]imidazole]	5
Cc1cccc(-c2nn(Cc3ccccn3)cc2-c2ccnc(-c3nc4c([nH]3)CN(S(C)(=O)=O)C4)c2)n1 [Compound 53, 2-[4-(3-(6-Methylpyridin-2-yl)-1-(pyridin-2-ylmethyl)-1H-pyrazol-4-yl)pyridin-2-yl]-5-(methylsulfonyl)-1,4,5,6-tetrahydropyrrolo[3,4-d]imidazole]	2.5
Cc1cccc(-c2nn(CC3CC3)cc2-c2ccnc(-c3nc4c([nH]3)CN(S(C)(=O)=O)C4)c2)n1 [Compound 47, 2-[4-(1-(Cyclopropylmethyl)-3-(6-methylpyridin-2-yl)-1H-pyrazol-4-yl)pyridin-2-yl]-5-(methylsulfonyl)-1,4,5,6-tetrahydropyrrolo[3,4-d]imidazole]	3.4

— patent publication US20250179094A1, “TGF-B INHIBITOR COMPOUND AND USE THEREOF” (Medinno Pharmaceutical Technology (Zhuhai) Co., Ltd., priority 2022, published 2025)
